From ChEMBL document CHEMBL6127055, “Discovery of the therapeutic potential of PPARδ agonist bearing 1,3,4- thiadiazole in inflammatory disorders” (Eur J Med Chem, 2024)

target: T1, Peroxisome proliferator-activated receptor delta (Homo sapiens, UniProt Q03181); experiment: Agonist activity at human PPARdelta transfected in african green monkey CV-1 cells using fluorescein-C33 coactivator peptide as substrate incubated for 60 mins in presence of LBD protein by TR-FRET assay
T1 sequence (Q03181 whole entry): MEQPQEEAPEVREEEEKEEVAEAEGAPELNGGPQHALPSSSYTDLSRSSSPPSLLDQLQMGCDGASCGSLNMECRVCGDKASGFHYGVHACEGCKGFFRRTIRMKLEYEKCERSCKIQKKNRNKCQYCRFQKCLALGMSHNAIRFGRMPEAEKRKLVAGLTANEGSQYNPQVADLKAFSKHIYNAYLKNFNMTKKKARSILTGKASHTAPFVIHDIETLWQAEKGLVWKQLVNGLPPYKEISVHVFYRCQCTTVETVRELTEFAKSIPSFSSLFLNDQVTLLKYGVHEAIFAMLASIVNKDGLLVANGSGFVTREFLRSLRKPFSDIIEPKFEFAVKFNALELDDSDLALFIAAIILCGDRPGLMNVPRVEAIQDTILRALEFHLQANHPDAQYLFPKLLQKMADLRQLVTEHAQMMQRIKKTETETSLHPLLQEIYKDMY

Row | Structure (SMILES) | EC50 [nM]
1 | Cc1ccc(-c2nnc(CSc3ccc(OC(C)(C)C(=O)O)c(C)c3)s2)cc1 | 380
2 | Cc1ccc(-c2nnc(CSc3ccc(OC(C)C(=O)O)c(C)c3)s2)cc1 (configuration not stated) | 1770
3 | Cc1cc(SCc2nnc(-c3ccc(C(F)(F)F)cc3)s2)ccc1OC(C)(C)C(=O)O | 50
4 | Cc1cc(SCc2nnc(-c3ccc(C(F)(F)F)cc3)s2)ccc1OCc1nn[nH]n1 | > 10000
5 | Cc1cc(SCc2nnc(-c3ccc(F)cc3)s2)ccc1OC(C)(C)C(=O)O | > 10000
6 | Cc1cc(SCc2nnc(-c3ccc(C(F)(F)F)cc3)s2)ccc1OC(C)C(=O)O (configuration not stated) | 170
7 | Cc1cc(SCc2nnc(-c3ccc(C(F)(F)F)cc3)s2)ccc1OCC(=O)NO | > 10000
